In patent US12138240B2, “Treatment of cardiac dysfunction” (priority 2017, dated 2024):
Where two headings read alike, the source gives them in different places.

How the values were obtained:
[1] = phase 2a studies, highest observed Cmax and extrapolation to 200 mg dose; conditions: human, in vivo, footnote b, Alzheimer's disease patients, paired with ANAVEX 2-73 value, read-out: ANAVEX 19-144 Concentration, highest observed Cmax in phase 2a studies
Experimental: Estimates are employed to apply the Exposure-QTcF relationship using observed and unlikely to be observed concentrations of the parent drug and metabolite QTc intervals are predicted, given the parameter estimates obtained with the exposure-QTcF model developed. […] The predicted QTcF for that subject is 410.67 ms, given the corresponding concentration of ANAVEX 19-144 being 38.3 ng/mL (Table 3). Thus, the QT corrected interval upon treatment with ANAVEX 2-73 is predicted to be below 420 ms.
Observed and unlikely to be observed concentrations of the parent drug and metabolite are used to predict heart rate, given the parameter estimates obtained with the exposure-heart rate model developed. […] Thus, the heart rate upon treatment with ANAVEX 2-73 is predicted to be below 75 beats/min.

[2] = test system: human subjects with sustained ventricular fibrillation; assay: treatment of ventricular fibrillation with A19-144 (Example 3); type: in vivo; conditions: Example 3: 40 mg orally daily in two 20 mg doses
Experimental: The safety, tolerability, and short term efficacy of […] A subject with symptomatic ventricular fibrillation (72 hr duration) receives 40 mg of A19-144 orally daily in two 20 mg doses. Dosing is initiated in hospital and continues in weekly follow-up visits. Efficacy is assessed as absence of ventricular fibrillation recurrence on weekly 12-lead ECG and daily transtelephonic monitoring during the study.

[3] = test system: muscarinic acetylcholine receptors; conditions: stated as 'is believed to bind'; cited from earlier work
sigma-1 receptors = sigma-1 receptors (Homo sapiens, UniProt Q99720); conditions: stated as 'is believed to bind'; cited from earlier work
male healthy subjects = assay: linear exposure-QTcF model (NONMEM); design: species or system human; conditions: QTcFij=407+0.196*Parent−0.643*Metabolite−0.143*Time
Excerpt: Data analysis proceeded from data structure analysis in S-PLUS to linear/nonlinear mixed effects modeling in NONMEM to develop the exposure-QTc relationship for ANAVEX 2-73 and its active metabolite ANAVEX 19-144. The correction method used for QT interval was the Fridericia's correction. The bootstrap was used to determine the reliability/stability of the exposure-QTc models developed. This was necessary to determine if the modeling results obtained with data from the 17 subjects would be applicable to the population at large, given the sample size. […]
The approach used in characterizing exposure-QTc relationship was as follows: • 1) Concentration and QTc versus time plots were examined for any apparent trends or associations. • 2) Subject- and dose-specific QTc vs concentration plots were also examined for association as well as for the presence of any hysteresis indicative of temporal dissociations, i.e., indirect effects. • 3) All of the QTc measurements were plotted against the paired concentration measurements. […] Additionally, models incorporating cooperativity of drug action such as competitive antagonism between ANAVEX 2-73 and ANAVEX 19-144 concentrations and QTc effect were evaluated, as warranted, using nonlinear mixed effects modeling. […]

[4] = test system: human subjects with sustained atrial fibrillation (AF); assay: treatment of atrial fibrillation with A2-73 (Examples 1 and 4); type: in vivo; conditions: for AF recurrence: 30 day follow-up; for serious adverse events: to end of 30 day follow-up
Experimental: The safety, tolerability, and short term efficacy of […] A subject with symptomatic AF (72 hr duration) receives 30 mg of A2-73 orally every day. Dosing is initiated in hospital and continues in weekly follow-up visits. Efficacy is assessed as absence of AF recurrence on weekly 12-lead ECG and daily transtelephonic monitoring during the study. The safety, tolerability, and short term efficacy of […] A subject with symptomatic AF (72 hr duration) is administered intravenously 30 mg of A2-73 every day. Dosing is initiated in hospital and continues in weekly follow-up visits. Efficacy is assessed as absence of AF recurrence on weekly 12-lead ECG and daily transtelephonic monitoring during the study.

[5] = test system: human subjects with sustained atrial flutter; assay: treatment of atrial flutter with A2-73 (Example 2); type: in vivo; conditions: Example 2: 60 mg orally daily
Experimental: The safety, tolerability, and short term efficacy of […] 2-73 in human subjects with sustained atrial flutter as follows. A subject with atrial flutter (72 hr duration) receives 60 mg of A2-73 orally daily. Dosing is initiated in hospital and continues in weekly follow-up visits. Efficacy is assessed as absence of atrial flutter recurrence on weekly 12-lead ECG and daily transtelephonic monitoring during the study.

[6] = Example 1: 30 mg orally every day
[7] = Example 4: 30 mg intravenously every day

sigma-1 receptors, sequence (Q99720 whole entry): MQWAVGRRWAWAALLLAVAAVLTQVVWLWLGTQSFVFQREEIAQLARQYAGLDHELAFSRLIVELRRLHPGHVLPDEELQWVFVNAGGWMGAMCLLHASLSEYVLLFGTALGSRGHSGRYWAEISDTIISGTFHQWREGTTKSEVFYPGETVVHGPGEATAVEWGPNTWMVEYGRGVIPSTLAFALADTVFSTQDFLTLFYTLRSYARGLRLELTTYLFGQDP

Compound	Cmax ([1]; 50 mg)	Cmax [1]	time to cessation of ventricular fibrillation [2]	ventricular fibrillation recurrence ([2]; 30 day follow-up)	serious adverse events ([2]; to end of 30 day follow-up)	affinity for muscarinic acetylcholine receptors [3]	affinity for sigma-1 receptors (sigma-1 receptors)	slope on Parent in final exposure-QTcF model (male healthy subjects)	time to cessation of AF [4, 6]	AF recurrence [4, 6]	serious adverse events [4, 6]	time to cessation of AF [4, 7]	AF recurrence [4, 7]	serious adverse events [4, 7]	time to cessation of arrhythmia [5]	recurrence ([5]; 30 day follow-up)	serious adverse events ([5]; to end of 30 day follow-up)
CNCC1CCOC1(c1ccccc1)c1ccccc1.Cl (centres unmarked) [ANAVEX 19-144, 1-(2,2-diphenyltetrahydrofuran-3-yl)-N-methylmethanamine hydrochloride]	11.1 ng/mL	23.1 ng/mL	≤ 12 h	does not recur	no serious adverse events occur	low micromolar range	low micromolar range										
CN(C)CC1CCOC1(c1ccccc1)c1ccccc1.Cl (centres unmarked) [ANAVEX 2-73, 1-(2,2-diphenyltetrahydrofuran-3-yl)-N,N-dimethylmethanamine hydrochloride]								0.196	≤ 12 h	does not recur	no serious adverse events occur	≤ 12 h	does not recur	no serious adverse events occur	≤ 12 h	does not recur	no serious adverse events occur
